From patent US20030175964A1, “Use of eicosanoids for tissue engineering” (Kantonsspital Basel, priority 2000, published 2003)

What was measured:
chondrocytes = conditions: cited from earlier work
human chondrocytes = experiment: Redifferentiation of expanded human chondrocytes in pellet culture, real-time quantitative PCR of differentiation indexes; format: cell-based
Description: Human articular cartilage samples were collected from the hip of 3 patients with no history of joint disease, undergoing joint replacement, following femoral neck fracture.
The cartilage samples were harvested aseptically and digested with 0.15% type II collagenase for 22 hours to isolate primary chondrocytes. The cells were washed and resuspended in Dulbecco's modified Eagles medium (DMEM) supplemented with 10% fetal bovine serum, 4′500 mg/l D-Glucose, nonessential amino acids, 1 mM sodium pyruvate, 100 mM HEPES buffer, 100 U/ml penicillin, 100 μg/ml streptomycin, and 0.29 mg/ml L-glutamine (control medium, CTR). Chondrocytes were seeded into tissue culture flasks at approximately 10^4 cells/cm^2 and cultured in a humidified 37° C./5% CO^2 incubator.
After approximately 10 days, when the cells were confluent, first passage cells (P1) were detached using 0.25% trypsin/1 mM EDTA and replated at 5×10^3 cells/cm^2. After one more week, when the cells reached again confluency, second passage (P2) cells were trypsinised and cultured in pellets. Throughout the expansion phase, cells were cultured in control medium, with or without the addition of 5 ng/ml of Fibroblast Growth Factor-2 (FGF-2).
The cells were suspended at 5×10^5 cells/0.5 ml of serum-free medium (SF) consisting of DMEM supplemented with ITS+1 (containing 10 μg/ml insulin, 5.5 μg/ml transferrin, 5 ng/ml selenium, 0.5 mg/ml bovine serum albumin, 4.7 μg/ml linoleic acid), 0.1 mM ascorbic-acid 2-Phosphate, and 1.25 μg/ml human serum albumin. This suspension was centrifuged at less than 8000 rpm for 15 seconds in polypropylene conical tubes to form spherical pellets which were then statically incubated in a humidified 37° C./5% CO^2 incubator for 24 hours. […]
P, alone or in combination with A and/or D and/or H and/or T, was supplemented to the SF medium during 3D culture of the human chondrocyte cell pellets. After two weeks, the differentiation indexes (CII/CI and Agg/Ver) were assessed. […]
Further, for each primary culture, 2 pellets were formed per experimental group and assessed histologically and for quantitative PCR as described below.
Theoretical Basis. Real-time quantitative PCR monitors the degradation of a sequence-specific, dual-labeled fluorescent probe after each cycle of PCR amplification. […] After subtraction of the background fluorescence, calculated during the first 15 amplification cycles, the measured fluorescence is graphed as an amplification plot. […] The Ct value is correlated to input target mRNA amount: a larger starting quantity of mRNA target results in a lower number of PCR cycles required for the reporter fluorescent emission to reach the threshold, and therefore a lower Ct value. […]

[1] = SF medium supplemented with P, 1 μg/ml, two weeks, vs control culture

Compound: FGF-2: fibroblast growth factor-2, growth factor added during monolayer expansion of chondrocytes
- cartilaginous tissue formed after seeding onto three-dimensional polymer scaffolds (chondrocytes; chondrocytes expanded in the presence of FGF-2, versus freshly isolated (primary) chondrocytes): histologically and biochemically comparable to that obtain using freshly isolated chondrocytes
- formation of thick F-actin structures during monolayer expansion (chondrocytes; monolayer expansion in the presence of FGF-2): inhibits

Compound: CCCCC[C@H](O)/C=C/[C@H]1[C@H](O)CC(=O)[C@@H]1C/C=C\CCCC(=O)O [P, prostaglandin E2]
- Agg/Ver differentiation index, increase compared to the control culture (human chondrocytes; [1]): at least 2 orders of magnitude
- CII/CI differentiation index, increase compared to the control culture (human chondrocytes; [1]): at least 2 orders of magnitude
- effects on differentiation indexes and CI mRNA on chondrocytes expanded with FGF-2 (human chondrocytes; chondrocytes expanded with 5 ng/ml FGF-2, compared with those expanded without FGF-2): comparable
- expression of CI (collagen type I) mRNA (human chondrocytes; pellets, SF medium supplemented with P): decrease
